What was measured:
Type in all cases: in vivo
[1] = tested on: redroot pigweed (Amaranthus retroflexus); assay: Test G Pre-Emergence Protocol; conditions: Amaranthus retroflexus, pre-emergence, 312 h, evaluated after 13 days; for pest or weed control at 15.625 g/ha: 15.625 g ai/ha; for pest or weed control at 15.625 g/ha / pest or weed control at 250 g/ha: read-out: Pigweed, Redroot damage rating (100=total damage to plant; 0=no damage to plant); for pest or weed control at 62.5 g/ha: 62.5 g ai/ha, 100=total damage to plant, 0=no damage to plant, read-out: Pigweed, Redroot damage rating; for pest or weed control at 250 g/ha: 250 g ai/ha
Method in brief: (§1)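 Test compound in 0.5% Tween 20 acetone/water (50:50) was applied at three rates (15.625, 62.5, 250 g/ha) to soil sown one day earlier. After 13 days plants were scored for injury, where 0 means unaffected and 100 means completely damaged.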

[2] = tested on: ivy-leaved morning glory (Ipomoea hederacea); assay: Test G Pre-Emergence Protocol; conditions: Ipomoea, pre-emergence, 312 h, evaluated after 13 days; for pest or weed control at 15.625 g/ha: 15.625 g ai/ha; for pest or weed control at 15.625 g/ha / pest or weed control at 250 g/ha: read-out: Morningglory, Ivy-leaved damage rating (100=total damage to plant; 0=no damage to plant); for pest or weed control at 62.5 g/ha: 62.5 g ai/ha, 100=total damage to plant, 0=no damage to plant, read-out: Morningglory, Ivy-leaved damage rating; for pest or weed control at 250 g/ha: 250 g ai/ha
Method in brief: as §1

corn (Zea mays) [3] = assay: Test G Pre-Emergence Protocol; conditions: Zea mays, pre-emergence, 312 h, evaluated after 13 days; for plant injury at 15.625 g/ha: 15.625 g ai/ha; for plant injury at 15.625 g/ha / plant injury at 250 g/ha: read-out: Corn damage rating (100=total damage to plant; 0=no damage to plant); for plant injury at 62.5 g/ha: 62.5 g ai/ha, 100=total damage to plant, 0=no damage to plant, read-out: Corn damage rating; for plant injury at 250 g/ha: 250 g ai/ha
Method in brief: as §1

[4] = tested on: velvetleaf (Abutilon theophrasti); assay: Test G Pre-Emergence Protocol; conditions: Abutilon theophrasti, pre-emergence, 312 h, evaluated after 13 days; for pest or weed control at 15.625 g/ha: 15.625 g ai/ha; for pest or weed control at 15.625 g/ha / pest or weed control at 250 g/ha: read-out: Velvetleaf damage rating (100=total damage to plant; 0=no damage to plant); for pest or weed control at 62.5 g/ha: 62.5 g ai/ha, 100=total damage to plant, 0=no damage to plant, read-out: Velvetleaf damage rating; for pest or weed control at 250 g/ha: 250 g ai/ha
Method in brief: as §1

[5] = tested on: barnyardgrass (Echinochloa crus-galli); assay: Test G Pre-Emergence Protocol; conditions: Echinochloa crus-galli, pre-emergence, 312 h, evaluated after 13 days; for pest or weed control at 15.625 g/ha: 15.625 g ai/ha; for pest or weed control at 15.625 g/ha / pest or weed control at 250 g/ha: read-out: Barnyardgrass damage rating (100=total damage to plant; 0=no damage to plant); for pest or weed control at 62.5 g/ha: 62.5 g ai/ha, 100=total damage to plant, 0=no damage to plant, read-out: Barnyardgrass damage rating; for pest or weed control at 250 g/ha: 250 g ai/ha
Method in brief: as §1

[6] = tested on: giant foxtail (Setaria faberi); assay: Test G Pre-Emergence Protocol; conditions: Setaria faberi, pre-emergence, 312 h, evaluated after 13 days; for pest or weed control at 15.625 g/ha: 15.625 g ai/ha; for pest or weed control at 15.625 g/ha / pest or weed control at 250 g/ha: read-out: Foxtail, Giant damage rating (100=total damage to plant; 0=no damage to plant); for pest or weed control at 62.5 g/ha: 62.5 g ai/ha, 100=total damage to plant, 0=no damage to plant, read-out: Foxtail, Giant damage rating; for pest or weed control at 250 g/ha: 250 g ai/ha
Method in brief: as §1

[7] = tested on: redroot pigweed (Amaranthus retroflexus); assay: Test G Post-Emergence Protocol; conditions: Amaranthus retroflexus, post-emergence, 312 h, read-out: Pigweed, Redroot damage rating; for pest or weed control at 15.625 g/ha: 15.625 g ai/ha, evaluated after 13 days (100=total damage to plant; 0=no damage to plant); for pest or weed control at 62.5 g/ha: 62.5 g ai/ha; for pest or weed control at 62.5 g/ha / pest or weed control at 250 g/ha: evaluated after 13 days, 100=total damage to plant, 0=no damage to plant; for pest or weed control at 250 g/ha: 250 g ai/ha
Method in brief: (§2)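 Seedlings grown 8 days in soil in a glasshouse (24/16 °C day/night, 14 h light, 65% humidity) were sprayed post-emergence with compound in acetone/water 50:50 plus 0.5% Tween 20 at 15.625, 62.5 or 250 g/ha. Damage was scored after 13 days on a 0–100 scale (100 = total damage).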

[8] = tested on: ivy-leaved morning glory (Ipomoea hederacea); assay: Test G Post-Emergence Protocol; conditions: Ipomoea, post-emergence, 312 h, read-out: Morningglory, Ivy-leaved damage rating; for pest or weed control at 15.625 g/ha: 15.625 g ai/ha, evaluated after 13 days (100=total damage to plant; 0=no damage to plant); for pest or weed control at 62.5 g/ha: 62.5 g ai/ha; for pest or weed control at 62.5 g/ha / pest or weed control at 250 g/ha: evaluated after 13 days, 100=total damage to plant, 0=no damage to plant; for pest or weed control at 250 g/ha: 250 g ai/ha
Method in brief: as §2

corn (Zea mays) [9] = assay: Test G Post-Emergence Protocol; conditions: Zea mays, post-emergence, 312 h, read-out: Corn damage rating; for plant injury at 15.625 g/ha: 15.625 g ai/ha, evaluated after 13 days (100=total damage to plant; 0=no damage to plant); for plant injury at 62.5 g/ha: 62.5 g ai/ha; for plant injury at 62.5 g/ha / plant injury at 250 g/ha: evaluated after 13 days, 100=total damage to plant, 0=no damage to plant; for plant injury at 250 g/ha: 250 g ai/ha
Method in brief: as §2

[10] = tested on: velvetleaf (Abutilon theophrasti); assay: Test G Post-Emergence Protocol; conditions: Abutilon theophrasti, post-emergence, 312 h, read-out: Velvetleaf damage rating; for pest or weed control at 15.625 g/ha: 15.625 g ai/ha, evaluated after 13 days (100=total damage to plant; 0=no damage to plant); for pest or weed control at 62.5 g/ha: 62.5 g ai/ha; for pest or weed control at 62.5 g/ha / pest or weed control at 250 g/ha: evaluated after 13 days, 100=total damage to plant, 0=no damage to plant; for pest or weed control at 250 g/ha: 250 g ai/ha
Method in brief: as §2

[11] = tested on: barnyardgrass (Echinochloa crus-galli); assay: Test G Post-Emergence Protocol; conditions: Echinochloa crus-galli, post-emergence, 312 h, read-out: Barnyardgrass damage rating; for pest or weed control at 15.625 g/ha: 15.625 g ai/ha, evaluated after 13 days (100=total damage to plant; 0=no damage to plant); for pest or weed control at 62.5 g/ha: 62.5 g ai/ha; for pest or weed control at 62.5 g/ha / pest or weed control at 250 g/ha: evaluated after 13 days, 100=total damage to plant, 0=no damage to plant; for pest or weed control at 250 g/ha: 250 g ai/ha
Method in brief: as §2

[12] = tested on: giant foxtail (Setaria faberi); assay: Test G Post-Emergence Protocol; conditions: Setaria faberi, post-emergence, 312 h, read-out: Foxtail, Giant damage rating; for pest or weed control at 15.625 g/ha: 15.625 g ai/ha, evaluated after 13 days (100=total damage to plant; 0=no damage to plant); for pest or weed control at 62.5 g/ha: 62.5 g ai/ha; for pest or weed control at 62.5 g/ha / pest or weed control at 250 g/ha: evaluated after 13 days, 100=total damage to plant, 0=no damage to plant; for pest or weed control at 250 g/ha: 250 g ai/ha
Method in brief: as §2

| SMILES | pest or weed control at 15.625 g/ha [1] [%] | pest or weed control at 62.5 g/ha [1] [%] | pest or weed control at 250 g/ha [1] [%] | pest or weed control at 15.625 g/ha [2] [%] | pest or weed control at 62.5 g/ha [2] [%] | pest or weed control at 250 g/ha [2] [%] | plant injury at 15.625 g/ha (corn (Zea mays) [3]) [%] | plant injury at 62.5 g/ha (corn (Zea mays) [3]) [%] | plant injury at 250 g/ha (corn (Zea mays) [3]) [%] | pest or weed control at 15.625 g/ha [4] [%] | pest or weed control at 62.5 g/ha [4] [%] | pest or weed control at 250 g/ha [4] [%] | pest or weed control at 15.625 g/ha [5] [%] | pest or weed control at 62.5 g/ha [5] [%] | pest or weed control at 250 g/ha [5] [%] | pest or weed control at 15.625 g/ha [6] [%] | pest or weed control at 62.5 g/ha [6] [%] | pest or weed control at 250 g/ha [6] [%] | pest or weed control at 15.625 g/ha [7] [%] | pest or weed control at 62.5 g/ha [7] [%] | also measured |
| --- | --- | --- | --- | --- | --- | --- | --- | --- | --- | --- | --- | --- | --- | --- | --- | --- | --- | --- | --- | --- | --- |
| CN1C[C@H](c2cccc(C(F)(F)F)c2)[C@@H](C(=O)Nc2cnccc2S(C)(=O)=O)C1=O (racemic) [Compound 1747] | 0 | 10 | 10 | 0 | 0 | 0 | 0 | 0 | 0 | 0 | 0 | 0 | 0 | 0 | 80 | 0 | 10 | 70 | 10 | 20 | pest or weed control at 250 g/ha [7]: 20%; pest or weed control at 15.625 g/ha [8]: 0%; pest or weed control at 62.5 g/ha [8]: 20%; pest or weed control at 250 g/ha [8]: 50%; plant injury at 15.625 g/ha (corn (Zea mays) [9]): 0%; plant injury at 62.5 g/ha (corn (Zea mays) [9]): 0%; plant injury at 250 g/ha (corn (Zea mays) [9]): 30%; pest or weed control at 15.625 g/ha [10]: 0%; pest or weed control at 62.5 g/ha [10]: 0%; pest or weed control at 250 g/ha [10]: 10%; pest or weed control at 15.625 g/ha [11]: 0%; pest or weed control at 62.5 g/ha [11]: 60%; pest or weed control at 250 g/ha [11]: 80%; pest or weed control at 15.625 g/ha [12]: 10%; pest or weed control at 62.5 g/ha [12]: 60%; pest or weed control at 250 g/ha [12]: 80% |
| CN1CC(c2ccc(F)c(OCC(F)(F)F)c2)C(C(=O)Nc2cccc(F)c2F)C1=O (stereo not drawn) [Compound 1718] | 0 | 0 | 60 | 0 | 0 | 10 | 0 | 50 | 80 | 0 | 0 | 50 | 60 | 70 | 90 | 60 | 80 | 90 | 30 | 40 | pest or weed control at 250 g/ha [7]: 70%; pest or weed control at 15.625 g/ha [8]: 10%; pest or weed control at 62.5 g/ha [8]: 60%; pest or weed control at 250 g/ha [8]: 70%; plant injury at 15.625 g/ha (corn (Zea mays) [9]): 30%; plant injury at 62.5 g/ha (corn (Zea mays) [9]): 50%; plant injury at 250 g/ha (corn (Zea mays) [9]): 80%; pest or weed control at 15.625 g/ha [10]: 20%; pest or weed control at 62.5 g/ha [10]: 40%; pest or weed control at 250 g/ha [10]: 60%; pest or weed control at 15.625 g/ha [11]: 50%; pest or weed control at 62.5 g/ha [11]: 70%; pest or weed control at 250 g/ha [11]: 80%; pest or weed control at 15.625 g/ha [12]: 70%; pest or weed control at 62.5 g/ha [12]: 80%; pest or weed control at 250 g/ha [12]: 80% |

Reference: patent US12077503B2, “Substituted cyclic amides and their use as herbicides” (FMC CORPORATION, priority 2015, dated 2024)
